Some test systems named below: DMS 114 small cell lung; HCC-2998 colon; HOP-62 NSCLC; SF-268 CNS; SK-MEL-5 melanoma; SR leukemia; HCT-15 colon; KM20L2 colon; HS 578T breast.
What all share (test): NCI-60 cell line screen, 48 h

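Compound exposure: 48 hours, 5 concentrations, 96-well plates. GI50 = concentration required for 50% inhibition of growth. TGI is the concentration that stops growth completely.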 Some results are limits rather than exact numbers.

In the case of `CC(=O)c1c2c(cc3c1CC1(C3)Cc3cc4c(c(C(C)=O)c3C1)CCC4)CCC2`, the TGI with DMS 114 small cell lung, in the experiment with HCC-2998 colon, in the experiment with HOP-62 NSCLC, in the experiment on SF-268 CNS, in the experiment with SK-MEL-5 melanoma and in the experiment on SR leukemia was more than 100 µM throughout.

Take `O=C([CH-]C(=O)c1ccccc1)c1ccccc1.[CH-]1CCCCC1.[CH-]1CCCCC1.[CH-]1CCCCC1.[Sn+4]`: the GI50 is 6.1 µM with HCC-2998 colon; 5.67 µM in the experiment on HCT-15 colon; 7.85 µM in the experiment on HOP-62 NSCLC; 12.3 µM in the experiment on KM20L2 colon; 7.64 µM with SF-268 CNS; 6.58 µM in the experiment with SK-MEL-5 melanoma. The TGI in the experiment on HCC-2998 colon was 18.9 µM; with HCT-15 colon, 18.4 µM; with HOP-62 NSCLC, 20 µM; in the experiment with KM20L2 colon it was 26.3 µM; with SF-268 CNS it was 24.1 µM; with SK-MEL-5 melanoma, 19.1 µM.

Regarding `O=C1C(c2ccc(Br)cc2)=[N+]([O-])c2ccccc21`, the TGI with DMS 114 small cell lung worked out at 12.2 µM; in the experiment with HCC-2998 colon, 29.3 µM; with HCT-15 colon, 23.7 µM; in the experiment on HOP-62 NSCLC it was 68.8 µM; in the experiment with KM20L2 colon, 38.5 µM; with SF-268 CNS it was 32.3 µM. Further, the TGI in the experiment on SK-MEL-5 melanoma stood at 21.6 µM.

In the case of `COC(=O)N/N=C(\C)c1c(O)cc(C)oc1=O`, the TGI in the experiment on HCC-2998 colon, in the experiment on HCT-15 colon, in the experiment on HOP-62 NSCLC, in the experiment on KM20L2 colon, with SF-268 CNS and with SK-MEL-5 melanoma was more than 100 µM throughout. In the experiment on SR leukemia, this compound returned a TGI of more than 100 µM.

For the compound `C[CH2][Ge]([CH2]C)([CH2]C)[O]C(=O)C(OC(C)=O)c1ccccc1` (stereo unspecified), the GI50 in the experiment with DMS 114 small cell lung is 42.1 µM; in the experiment on HCC-2998 colon, more than 100 µM; in the experiment with HCT-15 colon it was more than 100 µM; in the experiment on HOP-62 NSCLC it was more than 100 µM; with KM20L2 colon, more than 100 µM; in the experiment with SF-268 CNS it was more than 100 µM. Besides, the GI50 with SK-MEL-5 melanoma is 71.6 µM. Further, the TGI in the experiment on DMS 114 small cell lung, in the experiment with HCC-2998 colon, in the experiment on HCT-15 colon, with HOP-62 NSCLC, with KM20L2 colon and with SF-268 CNS was more than 100 µM in each case. Besides, the TGI in the experiment with SK-MEL-5 melanoma was more than 100 µM.

Regarding `Cc1cccc(C2SCc3nc4ccccc4n32)c1` (stereo unspecified), the TGI is 28.3 µM in the experiment on DMS 114 small cell lung; 54.5 µM with HCT-15 colon; 66.6 µM in the experiment with HOP-62 NSCLC; more than 100 µM in the experiment with SF-268 CNS; 28.3 µM in the experiment with SK-MEL-5 melanoma; 64.2 µM with SR leukemia.

Regarding `COCc1c(-c2cc3cc(C)cc(OC)c3s2)c2c(N)ncnn2c1CN1CCNC(=O)C1`, the GI50 is 8.37 µM in the experiment with HCC-2998 colon; 3.63 µM with HCT-15 colon; 2.6 µM with HOP-62 NSCLC; 1.84 µM in the experiment with HS 578T breast; 4.3 µM in the experiment with SF-268 CNS; 6.16 µM in the experiment with SK-MEL-5 melanoma. Further, in the experiment on SR leukemia, the GI50 was 3.81 µM. Besides, the TGI in the experiment on HCC-2998 colon is more than 100 µM; in the experiment with HCT-15 colon it was 83.7 µM; with HOP-62 NSCLC, 15.9 µM; in the experiment on HS 578T breast it was 13.7 µM; with SF-268 CNS it was more than 100 µM; in the experiment on SK-MEL-5 melanoma it was 18.6 µM. In the experiment on SR leukemia, this compound showed a TGI of 40.5 µM.

As for `COc1ccc2c(c1)[nH]c(=O)c1c3cccc(F)c3cn21`, the GI50 in the experiment on HCC-2998 colon was 0.143 µM; with HCT-15 colon, 0.0458 µM; with HOP-62 NSCLC, 0.641 µM; in the experiment on HS 578T breast, 0.0299 µM; in the experiment with SF-268 CNS, 0.0749 µM; in the experiment with SK-MEL-5 melanoma it was 0.0449 µM. For the same compound, the GI50 in the experiment on SR leukemia was 0.0247 µM. In addition, the TGI in the experiment on HCC-2998 colon was 0.822 µM; in the experiment with HCT-15 colon, more than 100 µM; with HOP-62 NSCLC, 51.3 µM; with HS 578T breast, 0.0904 µM; with SF-268 CNS, 44.7 µM; with SK-MEL-5 melanoma it was more than 100 µM. Further, the TGI in the experiment on SR leukemia stood at 0.594 µM.

In the case of `NCCCC[C@@H]1NC(=O)[C@H](CC(=O)O)NC(=O)CNC(=O)[C@H](CCCN=C(N)N)NC(=O)[C@@H](N)CSSC[C@@H](C(=O)O)NC(=O)[C@H](CC(=O)O)NC(=O)[C@@H]2CCCN2C(=O)CNC1=O`, the GI50 in the experiment with HCC-2998 colon, in the experiment with HCT-15 colon, in the experiment on HOP-62 NSCLC, in the experiment on HS 578T breast, in the experiment on SF-268 CNS and with SK-MEL-5 melanoma was more than 100 µM throughout. Further, the GI50 with SR leukemia was more than 100 µM. Further, the TGI in the experiment with HCC-2998 colon, with HCT-15 colon, in the experiment on HOP-62 NSCLC, in the experiment on HS 578T breast, with SF-268 CNS and in the experiment with SK-MEL-5 melanoma was more than 100 µM in each case. For the same compound, the TGI with SR leukemia is more than 100 µM.

Regarding `CCc1ccc(CCC(=O)Nc2ncc(Cc3ccc(Cl)cc3)s2)o1`, the GI50 in the experiment with HCC-2998 colon was 0.812 µM; with HCT-15 colon, 0.356 µM; in the experiment with HOP-62 NSCLC, 0.623 µM; in the experiment on HS 578T breast, 0.3 µM; in the experiment with SF-268 CNS, 1.68 µM; with SK-MEL-5 melanoma it was 0.377 µM. The GI50 in the experiment on SR leukemia is 0.419 µM. Moreover, the TGI in the experiment on HCC-2998 colon is more than 100 µM; with HCT-15 colon, more than 100 µM; in the experiment with HOP-62 NSCLC, more than 100 µM; in the experiment on HS 578T breast it was 27.9 µM; with SF-268 CNS, more than 100 µM; in the experiment with SK-MEL-5 melanoma, more than 100 µM. In the experiment on SR leukemia, the TGI is more than 100 µM.

`COc1cc(Nc2ncc(-c3ccccc3)o2)cc(OC)c1`: the GI50 in the experiment with HCC-2998 colon is more than 25 µM; with HCT-15 colon, 18.6 µM; in the experiment with HOP-62 NSCLC, more than 25 µM; in the experiment on HS 578T breast it was 1.39 µM; with SF-268 CNS it was more than 25 µM; in the experiment with SK-MEL-5 melanoma it was more than 25 µM. Besides, the GI50 with SR leukemia is more than 17.7 µM. Also, the TGI is more than 25 µM in the experiment on HCC-2998 colon; more than 25 µM in the experiment with HCT-15 colon; more than 25 µM in the experiment on HOP-62 NSCLC; more than 9.65 µM with HS 578T breast; more than 25 µM with SF-268 CNS; more than 25 µM with SK-MEL-5 melanoma. Further, the TGI with SR leukemia was more than 25 µM.

For the compound `O=C(Nc1ccccc1)Nc1ccc2cc3ccc(NC(=O)Nc4ccccc4)cc3nc2c1`, the GI50 in the experiment with HCC-2998 colon was 0.556 µM; in the experiment on HCT-15 colon, 37.2 µM; in the experiment with HOP-62 NSCLC, 1.59 µM; in the experiment on HS 578T breast it was 1.53 µM; with SF-268 CNS it was 1.68 µM; in the experiment with SK-MEL-5 melanoma, 1.65 µM. Also, in the experiment on SR leukemia, the GI50 was 0.287 µM. Also, the TGI is 1.91 µM with HCC-2998 colon; more than 100 µM in the experiment with HCT-15 colon; 3.4 µM with HOP-62 NSCLC; 3.47 µM with HS 578T breast; 3.54 µM with SF-268 CNS; 3.11 µM in the experiment with SK-MEL-5 melanoma. The compound also came in with a TGI with SR leukemia of 0.734 µM.

(Values after PubChem BioAssay (NCI).)
